“Also recorded” adds a separate entry of the source.
Assays:
HUVEC [1] = assay: Adhesion of activated T cells to pretreated HUVEC; type: cell-based, human; settings: for T cell adhesion to HUVEC in the presence of TNF- and ET-1: NO antagonist / NO donor under the same experimental conditions; for adherence of activated human T cells to HUVEC: T cells activated with PMA or CD3/CD28, Endothelin plus BQ-788 compared to Endothelin alone, Endothelin and ETRA antagonist, or untreated
Procedure: (§1) Human vascular endothelial cells (HUVEC) were grown to 70% confluence in EBM media then treated with 50 nM Endothelin receptor B inhibitor BQ-788 (American peptide), or 2.5 nm Endothelin alone or in the presence of either 50 nm Endothelin receptor A inhibitor BQ123 (American peptide), or 50 nM Endothelin receptor B inhibitor BQ-788. Alternatively cells were treated with BQ-788 alone. Media was changed every 48 hrs for a total of 6 days. After 6 days cells were harvested for RNA, flow cytometry or incubated activated T cells. T cells were activated for 48 hours with either 5 ng/ml PMA […] or CD3 and CD28 beads. After activation T cells were labeled with CFSE and then incubated with pretreated endothelial cells for 2 hours with shaking. Cells were then washed 3× with PBS and adhesions was determined using a fluorescent plate reader.
The ability of activated T cells to adhere to BQ-788-treated HUVEC was also tested. […] T cell adherence to BQ788/Endothelin-treated HUVEC was 40% as effective as TNF-alpha activation of HUVEC. Thus, under the conditions utilized, BQ788 induces expression of ICAM-1 on endothelial cells and leads to increased T cell adhesion to tumor endothelium, playing a role in its increase of intratumoral T cells and enhancement of vaccine efficacy.
(§2) To further test the role of ETRB signaling in adhesion, the effects of NO antagonist L-NAME and NO donor DETANO were tested under the above experimental conditions. […] Thus, ET-1, through ETRB, downregulates the ability of endothelium to respond to inflammatory signals present in the tumor microenvironment such as TNF-α, which is restored by blocking ETRB through BQ788. Further, an NO antagonist abrogated the effects of ET-1, while NO donor reproduced its effect, showing that NO plays a role in the inhibitory effect of ET-1. To further test whether ETRB signaling upregulates NO in endothelial cells, reactive oxidative species (ROS) were quantified in HUVEC.

CD3+/CD8+ splenocytes = assay: T cell proliferation assay, CFSE-labeled splenocytes with DC pulsed with UV-radiated ID8; type: cell-based, mice; settings: BQ-788 versus control peptide, 6 days with ID8-pulsed DC
Source text: (§3) To confirm that ETRB plays a role in inhibiting T cell homing to human ovarian cancers, the ID8 syngeneic mouse model of ovarian cancer was utilized. This model responds modestly to potent dendritic cell (DC) vaccination. Strong expression of ETRB was detected in tumor endothelium in ID8 flank tumors by IHC (FIG. 7). Mice were vaccinated with a suboptimal preventive vaccine, containing UV-treated ID8 cells, which results in induction of systemic tumor-reactive interferon-gamma secreting T cells without significant delay in tumor growth Following vaccination, mice were inoculated with flank tumors, which were allowed to engraft for 2 or 5 weeks, and then mice were treated i.p. with the ETRB antagonist peptide, BQ-788, […] (SEQ ID No: 90), every 2nd day for 2 weeks or with control peptide that was a scrambled version of the above peptide. Additional controls included non-vaccinated animals treated with BQ-788 or control peptide. To confirm that the above vaccination scheme results in significant increase in the frequency of systemic tumor-reactive T cells, CD3^+/CD8^+ splenocytes from vaccinated animals treated with BQ-788 or control peptide, and from non-vaccinated mice, were labeled with CFSE and incubated with DC pulsed with UV-radiated ID8 for 6 days to assess proliferation. […] Proliferation of lymphocytes from vaccinated mice treated with BQ-788 or control peptide was similar.

ID8 flank tumors [2] = assay: ID8 flank tumor model, BQ788 as tumor vaccine adjuvant (tumor growth); type: in vivo, mice
Procedure: (§4) Two injections of 5×10 6th UV irradiated ID8 ovarian cancer cells were injected sub-cutaneously in C57Bl6 mice one week apart. Vaccinated mice and non-vaccinated controls were injected with 5×10^6 ID8 cells in the flank with […] matrigel or intraperitoneally. Tumors were allowed to grow for 2 or 5 weeks as indicated, and then treated with intraperitoneal injections of BQ-788 (300 mcg) or control peptide for 2 weeks.
The murine epithelial ovarian cancer cell line ID8, syngeneic to C57BL/6 mice was cultured in DMEM supplemented with 4% FBS, 13 ITS media supplement (bovine insulin (5 mg/L), human transferrin (5 mg/L), and sodium selenite ([…]); Sigma), and antibiotics.
(§5) Female C57BL/6 mice (8 weeks of age) were injected 3 times […]. with 1×10^6 UV-treated, apoptotic ID8 ovarian cancer cells (resuspended in 500 microliter (mcL) DMEM without supplements) in the flank. For the orthotopic, intraperitoneal model, mice were injected i.p. with 5×10^6ID8 cells.
To confirm that ETRB plays a role in inhibiting T cell homing to human ovarian cancers, the ID8 syngeneic mouse model of ovarian cancer was utilized. This model responds modestly to potent dendritic cell (DC) vaccination. Strong expression of ETRB was detected in tumor endothelium in ID8 flank tumors by IHC (FIG. 7). […]

ID8 flank tumors [3] = assay: T cell infiltration into ID8 flank tumors (IHC, flow cytometry); type: in vivo, mice
Procedure: as §4
FACS analysis was performed using APC-CD45 (BD Pharmingen), PE-anti CD3, FITC anti CD4, and Biotin anti-CD8 coupled with streptavid PE-Cy7.
as §3
Tumor growth delay was not observed in non-vaccinated mice treated with BQ-788 or in vaccinated mice treated with control peptide. […] Flow cytometry from mechanically dissected tumors confirmed the results observed with IHC: In non-vaccinated animals treated with BQ-788 as well as in vaccinated animals treated with control peptide, CD3^+ cells represented on average 4% of the cells (range 0.5 to 12%), while vaccinated animals treated with BQ-788, CD3^+ cells represented 15% of the cells (range 8 to 30%), containing both CD4^+ and CD8^+ cells (FIG. 8).

HUVEC [4] = assay: HUVEC treated with Endothelin and BQ-788: morphology and qRT-PCR; type: cell-based, human; settings: for morphology of HUVEC: BQ-788 in the presence of Endothelin, 6 days
Procedure: qRT-PCR was performed using primers to the 3′ end of transcripts spanning intron-exon boundaries whenever possible for 35 cycles using Sybergreen® (ABI, Foster City, Calif.), with primers at 150 nM concentrations. Primers were 18-24 nucleotides and were designed to have a TM of 59-61° C. All transcripts were confirmed using 3% agarose gel electrophoresis. Gene expression was normalized against β-actin in all studies unless stated otherwise.
as §1
Next, the effect of BQ-788 on human and murine endothelial cells or T cells was tested in the presence or absence of ET-1 ligand. In addition, the effect of endothelin receptor A antagonist BQ123 was tested. […] Moreover, there was a decrease in the expression of VE-Cadherin mRNA in BQ788-treated cells (FIG. 9).

[5] = system: intraperitoneal ID8 cells; assay: Orthotopic, intraperitoneal ID8 model of ovarian cancer (ascites, survival); type: in vivo, mice; settings: vaccinated animals, BQ-788 every 2nd day for 2 weeks from two weeks after i.p. ID8, versus control peptide
Procedure: as §4, §5
The impact of BQ-788 on survival in vaccinated animals was also tested in the orthotopic, intraperitoneal ID8 model of ovarian cancer. Following vaccination, mice were injected i.p. with ID8 cells. Two weeks later, animals received either BQ-788 or control peptide every 2nd day for 2 weeks.

HUVEC [6] = assay: Reactive oxidative species (ROS) quantified in HUVEC; type: cell-based, human; settings: for ROS in HUVEC: exposure to rhET-1, with or without BQ788
Procedure: as §2

ID8 cells = assay: CTL assay, lysis of ID8 cells by CD3+/CD8+ splenocytes; type: cell-based, mice; settings: splenocytes from vaccinated animals treated with BQ-788

With `COC(=O)[C@@H](N)CCCNC(=N)N[N+](=O)[O-]` [L-NAME] the “T cell adhesion to HUVEC in the presence of TNF- and ET-1” value (HUVEC [1]) was “restored T cell adhesion”.
In the case of `NCCN(CCN)/[N+]([O-])=N/O` [DETANO], the “T cell adhesion to HUVEC in the presence of TNF- and ET-1” value (HUVEC [1]) is reported as “mimicked the effects of ET-1”.
In the case of `CCCC[C@@H](NC(=O)[C@@H](Cc1cn(C(=O)OC)c2ccccc12)NC(=O)[C@H](CC(C)(C)C)NC(=O)N1[C@H](C)CCC[C@@H]1C)C(=O)O` [BQ-788], the “proliferation of lymphocytes from vaccinated mice” value (CD3+/CD8+ splenocytes) is reported as “similar”, the tumor growth delay (ID8 flank tumors [2]; non-vaccinated mice treated with BQ-788) is reported as “not observed” and the tumor growth (ID8 flank tumors [2]; vaccinated mice, i.p. BQ-788 every 2nd day for 2 weeks, starting at 2 or at 5 weeks after engraftment) is reported as “significant reduction in tumor growth”. The “numbers of CD3+, CD8+ T cells in tumors, FACS analysis” value (ID8 flank tumors [3]; BQ788 treated animals as compared to control animals) was “increased numbers of CD3^+, CD8^+ T cells”, the “intratumoral CD8+ T cells (IHC)” value (ID8 flank tumors [3]; non-vaccinated animals treated with BQ-788) was “scarce intratumoral CD8^+ T cells” and the “CD3+ cells as share of the cells of dissected tumors, flow cytometry, average” value (ID8 flank tumors [3]; non-vaccinated animals treated with BQ-788, stated together with vaccinated animals treated with control peptide) was 4%. The “CD3+ cells as share of the cells of dissected tumors, flow cytometry” value (ID8 flank tumors [3]; vaccinated animals treated with BQ-788) was 15%, the “intratumoral CD8+ T cells (IHC)” value (ID8 flank tumors [3]; vaccinated mice treated with BQ-788) was “very strong infiltration by CD8^+ T cells” and the “intratumoral CD8+ T cells (IHC)” value (ID8 flank tumors [3]; vaccinated mice treated with BQ-788, listed as BQ788) was “significant numbers of CD8^+ T cells”. The “T cell adherence relative to TNF-alpha activation of HUVEC” value (HUVEC [1]; BQ788/Endothelin-treated HUVEC) was 40%, the “adherence of activated human T cells to HUVEC” value (HUVEC [1]) was “increased adherence” and the “adherence of activated human T cells to HUVEC” value (HUVEC [1]; listed as BQ788) was “increased ability of T cells to adhere”. For the same compound, the “mRNA levels for ICAM-2, ICAM-3, E-selectin, JAM, CXCL-11, CCL-19, or CCL-21” value (HUVEC [4]; BQ788-treated HUVEC) was “No specific changes were detected”, the “expression of VE-Cadherin mRNA” value (HUVEC [4]; BQ788-treated HUVEC in the presence of Endothelin) was “decrease; also recorded: decreased expression of VE-Cadherin” and the “morphology of HUVEC” value (HUVEC [4]) was “distinct morphological change”. For the same compound, the “morphology of HUVEC” value (HUVEC [4]; listed as BQ788) was “Morphologic changes”, the “increased expression of ICAM-1 mRNA, qRT-PCR” value (HUVEC [4]; Endothelin and BQ-788 compared to untreated HUVEC, Endothelin alone, or Endothelin plus ETRA antagonist) was “over 7 fold” and the “expression of ICAM1, qRT-PCR (in words)” value (HUVEC [4]; Endothelin+BQ788-treated HUVEC as compared to Endothelin alone or BQ788 alone) was “increased expression of ICAM1”. The ascites development [5] was “developed ascites later”, the survival [5] was “significant prolongation of survival” and the “suppression of ROS compared with bacterial LPS” value (HUVEC [6]; HUVEC exposed to ET-1) was “as potent as bacterial LPS”. For the same compound, the “ROS in HUVEC” value (HUVEC [6]) was “abrogated such response to ET-1” and the “ID8 cell killing by CD3+/CD8+ splenocytes” value (ID8 cells) was “robust ID8 cell killing”.
With `CC[C@H](C)[C@H](NC(=O)[C@H](CC(=O)O)NC(=O)[C@H](CC(C)C)NC(=O)[C@H](Cc1c[nH]cn1)NC(=O)[C@@H]1CSSC[C@H](N)C(=O)N[C@@H](CO)C(=O)N[C@H]2CSSC[C@H](NC(=O)[C@H](CCC(=O)O)NC(=O)[C@H](CCCCN)NC(=O)[C@H](CC(=O)O)NC(=O)[C@H](CCSC)NC(=O)[C@H](CC(C)C)NC(=O)[C@H](CO)NC(=O)[C@H](CO)NC2=O)C(=O)N[C@@H](C(C)C)C(=O)N[C@@H](Cc2ccc(O)cc2)C(=O)N[C@@H](Cc2ccccc2)C(=O)N1)C(=O)N[C@H](C(=O)N[C@@H](Cc1c[nH]c2ccccc12)C(=O)O)[C@@H](C)CC` [rhET-1] the “ROS in HUVEC” value (HUVEC [6]) was “upregulated ROS”.

From patent US10174120B2, “Methods and compositions for treating solid tumors and enhancing tumor vaccines” (THE TRUSTEES OF THE UNIVERSITY OF PENNSYLVANIA, priority 2007, dated 2019)
